Test results as given in patent publication US20250269093A1, “METHODS OF ENHANCING ANTIMICROBIAL EFFICACY OF LOCAL ANESTHETICS” (Chinook Contract Research Inc., priority 2023, published 2025).
Counter-ions that a name gives are not always drawn. Like-named read-outs stand apart in the source and are kept apart here.

Key:
[1] = tested on: S. epidermidis ATCC 35984; test: Broth microdilution assay (MIC); type: cell-based, Staphylococcus epidermidis; settings: for MIC: broth microdilution, 16-24 hours at 37° C.; for MIC +1 mg/mL LD: titrated in a constant concentration of 1 mg/mL lidocaine base
Description: (§1) Broth Microdilution Assay: A stock solution of each test article was serially diluted in a 96-well plate for a final volume of 0.1 mL per well. […] Turbidity was assessed after 16-24 hours at 37° C. (100 rpm).
(§2) Incubated at 37° C. at 200 rpm for approximately 2 hours to fully dissolve the powder. Filter sterilized.
(§3) Prepared a 2× stock of lidocaine HCl by dissolving 500 mg per 10 mL OSB (=50 mg/mL). Filter sterilized.
(§4) Serially diluted (2-fold series) the contents of rows B to G: Removed 100 μL from row B to row C and mixed by pipetting up and down at least 3 times. Discarded the tips.
(§5) For bacteria: Mixed 10 μL O/N with 990 μL OSB for ˜10^7 CFU/mL, then mixed 100 μL of the ˜10^7 CFU/mL culture with 9.90 mL BGM for ˜10^5 CFU/mL. • b. For yeast: Mixed 100 μL O/N with 9.90 mL BGM for ˜10^5 CFU/mL.
(§6) Immediately poured the ˜10^5 CFU/mL inoculum into a sterile reagent reservoir and used a multichannel pipettor to aliquot 100 μL into each well of the 96-well plates, excluding row H. Mixed by pipetting up and down at least 3 times. Added uninoculated BGM to row H.
(§7) Sealed the plates in sandwich bags and incubated at 37±1° C. for 16-24 hours (100 rpm).
(§8) Visually scored for growth, which appeared as turbidity or as a deposit of cells at the bottom of a well.
(§9) Determined the MIC (minimum inhibitory concentration) for each organism. The MIC was defined as the minimum concentration that inhibited growth of the organism.
(§10) MIC determination from Broth Microdilution: MIC results were determined following the overnight incubation of the broth microdilution plates. Ensured that the SC wells were free of growth and that the GC wells were positive for growth. To determine the minimum inhibitory concentration (MIC) values, checked for turbidity in the wells of the challenge plate and scored. The MIC was defined as the minimum concentration that inhibited visible growth of the organism.

E. coli ATCC 25922 [2] = test: Broth microdilution assay (MIC); type: cell-based, Escherichia coli; settings: for MIC: broth microdilution, 16-24 hours at 37° C.; for MIC +1 mg/mL LD: titrated in a constant concentration of 1 mg/mL lidocaine base
Description: as §1, §2, §3, §4, §5, §6, §7, §8, §9, §10

P. mirabilis ATCC 29906 = test: Broth microdilution assay (MIC); type: cell-based, Proteus mirabilis; settings: for MIC: broth microdilution, 16-24 hours at 37° C.; for MIC +1 mg/mL LD: titrated in a constant concentration of 1 mg/mL lidocaine base
Description: as §1, §2, §3, §4, §5, §6, §7, §8, §9, §10

P. aeruginosa ATCC 15442 = test: Broth microdilution assay (MIC); type: cell-based, Pseudomonas aeruginosa; settings: for MIC: broth microdilution, 16-24 hours at 37° C.; for MIC +1 mg/mL LD: titrated in a constant concentration of 1 mg/mL lidocaine base
Description: as §1, §2, §3, §4, §5, §6, §7, §8, §9, §10

S. aureus ATCC 29213 [3] = settings: cited from earlier work
S. aureus ATCC 29213 [4] = test: Broth microdilution assay (MIC); type: cell-based, Staphylococcus aureus; settings: for MIC: broth microdilution, 16-24 hours at 37° C.; for MIC +1 mg/mL LD: titrated in a constant concentration of 1 mg/mL lidocaine base
Description: as §1, §2, §3, §4, §5, §6, §7, §8, §9, §10

C. albicans ATCC 10231 = test: Broth microdilution assay (MIC); type: cell-based, Candida albicans; settings: for MIC: broth microdilution, 16-24 hours at 37° C.; for MIC +1 mg/mL LD: titrated in a constant concentration of 1 mg/mL lidocaine base
Description: as §1, §2, §3, §4, §5, §6, §7, §8, §9, §10

E. coli ATCC 25922 [5] = settings: cited from earlier work
P. aeruginosa ATCC 27853 = settings: cited from earlier work
E. faecalis ATCC 51575 = test: Broth microdilution assay (MIC); type: cell-based, Enterococcus faecalis; settings: for MIC: broth microdilution, 16-24 hours at 37° C.; for MIC +1 mg/mL LD: titrated in a constant concentration of 1 mg/mL lidocaine base
Description: as §1, §2, §3, §4, §5, §6, §7, §8, §9, §10

[6] = tested on: all seven tested organisms; test: Broth microdilution assay (MIC), summary over the panel; type: cell-based; settings: for MIC (plus lidocaine base): all seven organisms, constant concentration of 1 mg/mL lidocaine base
Description: as §1
Prepared a 2× stock solution of lidocaine by dissolving 20 mg of free-base lidocaine per 10 mL of OSB (=2 mg/mL). Incubated at 37° C. at 200 rpm for approximately 2 hours to fully dissolve the powder. Filter sterilized.
as §3
Prepared 2× stock (=8% v/v) of DMSO or NMP by mixing 800 μL of either with 9.2 mL of OSB or with OSB plus 2 mg/mL lidocaine base.
Aliquoted 200 μL of the 2× stock of LD-HCl, LD base, DMSO, NMP, DMSO+LD base, or NMP+LD base into wells B1-2, B3-4, B5-6, B7-8, B9-10, or B11-12, respectively.
as §4, §5, §6, §7, §8, §9
MIC determination from Broth Microdilution: MIC results were determined following the overnight incubation of the broth microdilution plates. […] To determine the minimum inhibitory concentration (MIC) values, checked for turbidity in the wells of the challenge plate and scored. […]

CCN(CC)CC(=O)Nc1c(C)cccc1C [LD-HCl, Lidocaine hydrochloride]
MIC ([1]; Staphylococcus epidermidis, ATCC35984, read-out: MIC): 25 mg/mL
MIC (E. coli ATCC 25922 [2]; Escherichia coli, ATCC25922, read-out: MIC): 6.25 mg/mL
MIC (P. mirabilis ATCC 29906; Proteus mirabilis, ATCC29906, read-out: MIC): 12.5 mg/mL
MIC (P. aeruginosa ATCC 15442; Pseudomonas aeruginosa, ATCC15442, read-out: MIC): 25 mg/mL
MIC (published literature) (S. aureus ATCC 29213 [3]): 20.0 mg/mL
MIC (S. aureus ATCC 29213 [4]; Staphylococcus aureus, ATCC29213, read-out: MIC): 12.5 mg/mL
MIC (C. albicans ATCC 10231; Candida albicans, ATCC10231, read-out: MIC): 12.5 mg/mL
MIC (published literature) (E. coli ATCC 25922 [5]): 5.00 mg/mL
MIC (published literature) (P. aeruginosa ATCC 27853): > 20.0 mg/mL
MIC (E. faecalis ATCC 51575; Enterococcus faecalis, ATCC51575, read-out: MIC): 25 mg/mL

CN1CCCC1=O [NMP, n-methyl-2-pyrrolidone]
MIC [1]: 4.00 % v/v
MIC +1 mg/mL LD [1]: 4.00 % v/v
MIC (E. coli ATCC 25922 [2]): 4.00 % v/v
MIC +1 mg/mL LD (E. coli ATCC 25922 [2]): 4.00 % v/v
MIC (P. mirabilis ATCC 29906): 4.00 % v/v
MIC +1 mg/mL LD (P. mirabilis ATCC 29906): 4.00 % v/v
MIC (P. aeruginosa ATCC 15442): 4.00 % v/v
MIC +1 mg/mL LD (P. aeruginosa ATCC 15442): 4.00 % v/v
MIC (S. aureus ATCC 29213 [4]): 4.00 % v/v
MIC +1 mg/mL LD (S. aureus ATCC 29213 [4]): 4.00 % v/v
MIC (C. albicans ATCC 10231): 4.00 % v/v
MIC +1 mg/mL LD (C. albicans ATCC 10231): 4.00 % v/v
MIC (plus lidocaine base) [6]: 4 % v/v
MIC ([6]; for all seven tested organisms, maximum challenge concentration 4% v/v): 4 % v/v
MIC (E. faecalis ATCC 51575): 4.00 % v/v
MIC +1 mg/mL LD (E. faecalis ATCC 51575): 4.00 % v/v

CCN(CC)CC(=O)Nc1c(C)cccc1C [LD-B, Free base lidocaine]
MIC [1]: >1.00 mg/mL
MIC (E. coli ATCC 25922 [2]): >1.00 mg/mL
MIC (P. mirabilis ATCC 29906): >1.00 mg/mL
MIC (P. aeruginosa ATCC 15442): >1.00 mg/mL
MIC (S. aureus ATCC 29213 [4]): >1.00 mg/mL
MIC (C. albicans ATCC 10231): >1.00 mg/mL
MIC (E. faecalis ATCC 51575): >1.00 mg/mL

C[S+](C)[O-] [DMSO, Dimethyl Sulfoxide]
MIC [1]: >4.00 % v/v
MIC +1 mg/mL LD [1]: >4.00 % v/v
MIC (E. coli ATCC 25922 [2]): >4.00 % v/v
MIC +1 mg/mL LD (E. coli ATCC 25922 [2]): >4.00 % v/v
MIC (P. mirabilis ATCC 29906): >4.00 % v/v
MIC +1 mg/mL LD (P. mirabilis ATCC 29906): >4.00 % v/v
MIC (P. aeruginosa ATCC 15442): >4.00 % v/v
MIC +1 mg/mL LD (P. aeruginosa ATCC 15442): >4.00 % v/v
MIC (S. aureus ATCC 29213 [4]): >4.00 % v/v
MIC +1 mg/mL LD (S. aureus ATCC 29213 [4]): >4.00 % v/v
MIC (C. albicans ATCC 10231): >4.00 % v/v
MIC +1 mg/mL LD (C. albicans ATCC 10231): >4.00 % v/v
MIC (plus lidocaine base) [6]: > 4 % v/v
MIC (E. faecalis ATCC 51575): >4.00 % v/v
MIC +1 mg/mL LD (E. faecalis ATCC 51575): >4.00 % v/v
